Data taken from ChEMBL document CHEMBL1134390, “Comparative molecular field analysis of dopamine D4 receptor antagonists including 3-[4-(4-chlorophenyl)piperazin-1-ylmethyl]pyrazolo[1,5-a]pyridine (FAUC 113), 3-[4-(4-chlorophenyl)piperazin-1-ylmethyl]-1H-pyrrolo-[2,3-b]pyridine (L-745,870), and clozapine” (J Med Chem, 2001).

biological target: T1, D(4) dopamine receptor (Homo sapiens) (UniProt P21917); details: CHO-K1
T1 sequence (whole entry): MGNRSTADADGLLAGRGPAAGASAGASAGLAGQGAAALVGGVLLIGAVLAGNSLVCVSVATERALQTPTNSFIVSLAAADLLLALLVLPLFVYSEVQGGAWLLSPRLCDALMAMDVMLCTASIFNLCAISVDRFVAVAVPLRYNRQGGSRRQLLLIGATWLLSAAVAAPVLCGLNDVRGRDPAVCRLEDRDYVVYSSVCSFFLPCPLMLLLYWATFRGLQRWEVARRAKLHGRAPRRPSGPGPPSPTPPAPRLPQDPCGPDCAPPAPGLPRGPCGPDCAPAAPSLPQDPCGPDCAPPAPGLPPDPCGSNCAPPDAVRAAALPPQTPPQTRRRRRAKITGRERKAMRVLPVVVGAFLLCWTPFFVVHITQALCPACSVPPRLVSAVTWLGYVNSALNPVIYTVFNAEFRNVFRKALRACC
Description: Ability to displace [3H]spiperone from dopamine receptor D4.4 expressed in CHO-K1 cells

Compared with `Clc1cccc(N2CCN(Cc3cnn4c3ccc3ccccc34)CC2)c1`, `Clc1cccc(N2CCN(Cc3cnn4ccc5ccccc5c34)CC2)c1` is lower in pKi: 6.66 for the first, 6.1 for the second.

Compared with `Cc1cccc2c(CN3CCN(c4ccc(Cl)cc4)CC3)cnn12`, `Clc1ccc(N2CCN(Cc3cnn4c(I)cccc34)CC2)cc1` is lower in pKi: 8.57 for the first, 8.3 for the second.

Compared with `Clc1ccc(N2CCN(Cc3cnn4ccccc34)CC2)cc1Cl`, `Ic1ccc(N2CCN(Cc3cnn4ccccc34)CC2)cc1` is higher in pKi: 8.25 for the first, 8.52 for the second.

`OCc1ccc2c(CN3CCN(c4ccccc4)CC3)cnn2c1` and `Fc1ccc(N2CCN(Cc3cnn4ccccc34)CC2)cc1` are within 0.2 log units of each other in pKi: 7.71 for the first, 7.7 for the second.

Compared with `Clc1ccc(N2CCN(Cc3cc4ccccn4n3)CC2)cc1`, `Clc1ccc(N2CCN(Cc3ccccc3)CC2)cc1` is lower in pKi: 8.66 for the first, 6.6 for the second.

Going from `Cc1cccn2ncc(CN3CCN(c4ccc(Cl)cc4)CC3)c12` to `C#Cc1cccc2c(CN3CCN(c4ccc(Cl)cc4)CC3)cnn12`, the pKi rises from 7.3 to 8.91.

`Clc1ccc(N2CCN(Cc3cc4ccccc4[nH]3)CC2)cc1` and `Clc1ccc(N2CCN(Cc3ccc[nH]3)CC2)cc1` are within 0.2 log units of each other in pKi: 7.74 for the first, 7.58 for the second.

Compared with `N#CC(C#N)=Cc1ccc(CN2CCN(c3ccc(Cl)cc3)CC2)[nH]1`, `N#CC(C#N)=Cc1cc(CN2CCN(c3ccc(Cl)cc3)CC2)c[nH]1` is higher in pKi: 8.02 for the first, 8.24 for the second.

Going from `C#Cc1ccc(N2CCN(Cc3cnn4ccccc34)CC2)cc1` to `FC(F)(F)c1cccc(N2CCN(Cc3cnn4ccccc34)CC2)c1`, the pKi rises from 8.36 to 8.72.

Going from `Clc1ccc(N2CCN(Cc3cc[nH]c3)CC2)cc1` to `CCN1CCN(Cc2cnn3ccccc23)CC1`, the pKi falls from 7.41 to 4.62.
